Data: US8541588B2, “Sulfonamide derivatives” (Pfizer Limited, priority 2009, dated 2013)

Target: T1, Nav1.7 (or SCN9A) channel; HEK cells stably transfected with hSCN9A (Homo sapiens, UniProt Q15858)
T1 construct: expressed in transfected cells
Assay: Nav1.7 block, PatchXpress 7000 automated whole-cell voltage clamp, estimated IC50 (EIC50)
Assay type: cell-based
Conditions: estimated IC50; hSCN9A HEK cells, PatchXpress platform; Examples 283-814

T1 sequence (Q15858 whole entry): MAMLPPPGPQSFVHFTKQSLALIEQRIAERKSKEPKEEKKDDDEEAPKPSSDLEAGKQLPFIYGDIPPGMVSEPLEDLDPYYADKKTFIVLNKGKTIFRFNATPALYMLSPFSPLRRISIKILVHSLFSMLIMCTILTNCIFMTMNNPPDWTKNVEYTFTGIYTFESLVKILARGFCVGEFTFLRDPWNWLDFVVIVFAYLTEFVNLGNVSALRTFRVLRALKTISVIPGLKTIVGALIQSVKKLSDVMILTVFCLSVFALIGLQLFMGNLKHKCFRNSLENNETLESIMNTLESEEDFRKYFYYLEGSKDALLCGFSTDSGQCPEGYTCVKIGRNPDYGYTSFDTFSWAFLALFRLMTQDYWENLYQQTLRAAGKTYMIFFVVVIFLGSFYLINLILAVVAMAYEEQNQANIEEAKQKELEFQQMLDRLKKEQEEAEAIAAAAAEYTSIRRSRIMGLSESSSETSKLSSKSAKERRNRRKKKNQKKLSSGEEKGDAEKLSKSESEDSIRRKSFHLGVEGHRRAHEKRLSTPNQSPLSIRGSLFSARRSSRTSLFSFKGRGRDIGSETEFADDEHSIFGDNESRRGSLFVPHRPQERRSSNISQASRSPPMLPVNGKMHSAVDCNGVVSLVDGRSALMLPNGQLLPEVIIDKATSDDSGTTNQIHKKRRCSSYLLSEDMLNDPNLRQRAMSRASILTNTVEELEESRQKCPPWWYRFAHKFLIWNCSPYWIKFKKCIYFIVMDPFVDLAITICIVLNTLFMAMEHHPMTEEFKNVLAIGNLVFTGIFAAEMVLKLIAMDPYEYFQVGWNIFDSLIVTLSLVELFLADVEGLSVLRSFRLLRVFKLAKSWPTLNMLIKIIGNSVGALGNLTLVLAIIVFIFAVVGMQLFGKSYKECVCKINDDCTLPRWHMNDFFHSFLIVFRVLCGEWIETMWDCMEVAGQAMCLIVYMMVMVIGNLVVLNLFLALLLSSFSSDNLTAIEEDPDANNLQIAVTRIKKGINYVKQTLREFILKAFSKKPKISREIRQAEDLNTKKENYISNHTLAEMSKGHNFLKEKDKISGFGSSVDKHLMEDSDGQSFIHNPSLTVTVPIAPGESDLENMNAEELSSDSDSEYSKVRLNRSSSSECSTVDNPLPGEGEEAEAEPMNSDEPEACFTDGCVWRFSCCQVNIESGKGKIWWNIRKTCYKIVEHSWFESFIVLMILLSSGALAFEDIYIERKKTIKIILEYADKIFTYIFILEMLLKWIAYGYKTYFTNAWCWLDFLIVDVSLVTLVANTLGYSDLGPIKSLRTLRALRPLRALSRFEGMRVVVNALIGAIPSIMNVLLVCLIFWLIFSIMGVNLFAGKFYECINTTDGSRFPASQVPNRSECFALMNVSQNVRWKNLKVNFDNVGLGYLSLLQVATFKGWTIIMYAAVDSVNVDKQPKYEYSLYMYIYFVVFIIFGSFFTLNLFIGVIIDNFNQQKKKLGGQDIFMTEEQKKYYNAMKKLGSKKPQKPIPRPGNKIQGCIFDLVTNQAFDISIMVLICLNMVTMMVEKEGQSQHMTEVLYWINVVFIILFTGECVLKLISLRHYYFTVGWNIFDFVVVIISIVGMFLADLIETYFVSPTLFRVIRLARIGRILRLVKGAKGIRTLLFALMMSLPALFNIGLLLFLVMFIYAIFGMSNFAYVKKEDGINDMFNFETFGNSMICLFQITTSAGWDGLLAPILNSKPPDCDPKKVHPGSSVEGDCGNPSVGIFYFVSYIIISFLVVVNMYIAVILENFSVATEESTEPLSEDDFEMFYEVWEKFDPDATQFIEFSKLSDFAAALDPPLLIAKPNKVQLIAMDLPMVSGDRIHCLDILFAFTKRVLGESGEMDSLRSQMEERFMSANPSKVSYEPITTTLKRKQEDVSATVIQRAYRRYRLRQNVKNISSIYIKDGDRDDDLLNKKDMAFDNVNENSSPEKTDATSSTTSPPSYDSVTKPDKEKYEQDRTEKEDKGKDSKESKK

SMILES | IC50 [nM]
N#Cc1cc(S(=O)(=O)Nc2ncc(Cl)cn2)ccc1Oc1ccccc1-c1ccccc1 [Example 430, 4-(biphenyl-2-yloxy)-N-(5-chloropyrimidin-2-yl)-3-cyanobenzenesulfonamide] | 12000
N#Cc1cc(S(=O)(=O)Nc2ncn[nH]2)ccc1Oc1ccccc1-c1ccccc1 [Example 431, 4-(biphenyl-2-yloxy)-3-cyano-N-1H-1,2,4-triazol-5-ylbenzenesulfonamide] | 11000
N#Cc1cnc(NS(=O)(=O)c2ccc(Oc3ccccc3-c3ccccc3)c(C#N)c2)nc1 [Example 432, 4-(biphenyl-2-yloxy)-3-cyano-N-(5-cyanopyrimidin-2-yl)benzenesulfonamide] | >10000
N#Cc1ccnc(NS(=O)(=O)c2ccc(Oc3ccccc3-c3ccccc3)c(C#N)c2)n1 [Example 433, 4-(biphenyl-2-yloxy)-3-cyano-N-(4-cyanopyrimidin-2-yl)benzenesulfonamide] | 15000
N#Cc1cc(S(=O)(=O)Nc2nccc(C(F)(F)F)n2)ccc1Oc1ccccc1-c1ccccc1 [Example 434, 4-(biphenyl-2-yloxy)-3-cyano-N-[4-(trifluoromethyl)pyrimidin-2-yl]benzenesulfonamide] | 18000
Cn1nccc1-c1ccc(Oc2ccc(S(=O)(=O)Nc3nccs3)cc2C#N)cc1 [Example 436, 3-cyano-4-[4-(1-methyl-1H-pyrazol-5-yl)phenoxy]-N-1,3-thiazol-2-ylbenzenesulfonamide] | 1300
Cn1nccc1-c1cc(C(F)(F)F)ccc1Oc1ccc(S(=O)(=O)Nc2ncns2)cc1C#N [Example 437, 3-cyano-4-[2-(1-methyl-1H-pyrazol-5-yl)-4-(trifluoromethyl)phenoxy]-N-1,2,4-thiadiazol-5-ylbenzenesulfonamide] | 56
COc1cc(-c2cc(Cl)ccc2Oc2ccc(S(=O)(=O)Nc3nccs3)cc2C#N)n(C)n1 [Example 439, 4-[4-chloro-2-(3-methoxy-1-methyl-1H-pyrazol-5-yl)phenoxy]-3-cyano-N-1,3-thiazol-2-ylbenzenesulfonamide] | 490
Cn1nccc1-c1cc(C(F)(F)F)ccc1Oc1ccc(S(=O)(=O)Nc2nccs2)cc1C#N [Example 440, 3-cyano-4-[2-(1-methyl-1H-pyrazol-5-yl)-4-(trifluoromethyl)phenoxy]-N-1,3-thiazol-2-ylbenzenesulfonamide] | 17
Cn1nccc1-c1cc(C#N)ccc1Oc1cc(F)c(S(=O)(=O)Nc2ncc(Cl)s2)cc1F [Example 441, N-(5-chloro-1,3-thiazol-2-yl)-4-[4-cyano-2-(1-methyl-1H-pyrazol-5-yl)phenoxy]-2,5-difluorobenzenesulfonamide] | 960
Cn1nccc1-c1cc(Cl)ccc1Oc1ccc(S(=O)(=O)Nc2ccccn2)cc1C#N [Example 442, 4-[4-chloro-2-(1-methyl-1H-pyrazol-5-yl)phenoxy]-3-cyano-N-pyridin-2-ylbenzenesulfonamide] | 1300
Cn1nccc1-c1ccc(Oc2ccc(S(=O)(=O)Nc3nccs3)cc2C#N)cc1Cl [Example 443, 4-[3-chloro-4-(1-methyl-1H-pyrazol-5-yl)phenoxy]-3-cyano-N-1,3-thiazol-2-ylbenzenesulfonamide] | 1800
N#Cc1cc(S(=O)(=O)Nc2nccs2)ccc1Oc1cccc(-c2ccn[nH]2)c1 [Example 444, 3-cyano-4-[3-(1H-pyrazol-5-yl)phenoxy]-N-1,3-thiazol-2-ylbenzenesulfonamide] | 9900
Cn1nccc1-c1cccc(Oc2ccc(S(=O)(=O)Nc3nccs3)cc2C#N)c1 [Example 445, 3-cyano-4-[3-(1-methyl-1H-pyrazol-5-yl)phenoxy]-N-1,3-thiazol-2-ylbenzenesulfonamide] | >1000
N#Cc1cc(S(=O)(=O)Nc2nccs2)ccc1Oc1ccc(Cl)c(-c2ccn[nH]2)c1 [Example 446, 4-[4-chloro-3-(1H-pyrazol-5-yl)phenoxy]-3-cyano-N-1,3-thiazol-2-ylbenzenesulfonamide] | 2300
N#Cc1cc(S(=O)(=O)Nc2nccs2)ccc1Oc1cccc(-c2cc(C(F)(F)F)ccn2)c1 [Example 447, 3-cyano-N-1,3-thiazol-2-yl-4-{3-[4-(trifluoromethyl)pyridin-2-yl]phenoxy}benzenesulfonamide] | 1800
N#Cc1cc(S(=O)(=O)Nc2nccs2)ccc1Oc1cccc(-c2cccc(C(F)(F)F)n2)c1 [Example 448, 3-cyano-N-1,3-thiazol-2-yl-4-{3-[6-(trifluoromethyl)pyridin-2-yl]phenoxy}benzenesulfonamide] | 2000
N#Cc1cc(S(=O)(=O)Nc2nccs2)ccc1Oc1cccc(-c2ccccn2)c1 [Example 449, 3-cyano-4-(3-pyridin-2-ylphenoxy)-N-1,3-thiazol-2-ylbenzenesulfonamide] | 3100
Cc1ccnc(-c2ccc(Oc3ccc(S(=O)(=O)Nc4nccs4)cc3C#N)cc2)c1 [Example 450, 3-cyano-4-[4-(4-methylpyridin-2-yl)phenoxy]-N-1,3-thiazol-2-ylbenzenesulfonamide] | 3400

SMILES | IC50 [nM]
COc1cccc(-c2ccc(Oc3ccc(S(=O)(=O)Nc4nccs4)cc3C#N)cc2)n1 [Example 451, 3-cyano-4-[4-(6-methoxypyridin-2-yl)phenoxy]-N-1,3-thiazol-2-ylbenzenesulfonamide] | >1000
N#Cc1cc(S(=O)(=O)Nc2nccs2)ccc1Oc1ccc(-c2cccc(C(F)(F)F)n2)cc1 [Example 453, 3-cyano-N-1,3-thiazol-2-yl-4-{4-[6-(trifluoromethyl)pyridin-2-yl]phenoxy}benzenesulfonamide] | 1700
N#Cc1cc(S(=O)(=O)Nc2nccs2)ccc1Oc1ccc(-c2nccc(C(F)(F)F)n2)cc1 [Example 454, 3-cyano-N-1,3-thiazol-2-yl-4-{4-[4-(trifluoromethyl)pyrimidin-2-yl]phenoxy}benzenesulfonamide] | >1000
Cc1cccnc1-c1ccc(Oc2ccc(S(=O)(=O)Nc3nccs3)cc2C#N)cc1 [Example 455, 3-cyano-4-[4-(3-methylpyridin-2-yl)phenoxy]-N-1,3-thiazol-2-ylbenzenesulfonamide] | 2300
N#Cc1cc(S(=O)(=O)Nc2nccs2)ccc1Oc1ccc(-c2ncccc2Cl)cc1 [Example 456, 4-[4-(3-chloropyridin-2-yl)phenoxy]-3-cyano-N-1,3-thiazol-2-ylbenzenesulfonamide] | 1900
N#Cc1cc(S(=O)(=O)Nc2nccs2)ccc1Oc1ccc(-c2ncccc2C(F)(F)F)cc1 [Example 457, 3-cyano-N-1,3-thiazol-2-yl-4-{4-[3-(trifluoromethyl)pyridin-2-yl]phenoxy}benzenesulfonamide] | 2000
N#Cc1cc(S(=O)(=O)Nc2ncns2)cc(F)c1Oc1ccc(F)cc1-c1ccn[nH]1 [Example 459, 3-cyano-5-fluoro-4-[4-fluoro-2-(1H-pyrazol-5-yl)phenoxy]-N-1,2,4-thiadiazol-5-ylbenzenesulfonamide] | 840
N#Cc1cc(S(=O)(=O)Nc2nccs2)ccc1Oc1ccc(C(F)(F)F)cc1-c1cn[nH]c1 [Example 460, 4-(2-(1H-pyrazol-4-yl)-4-(trifluoromethyl)phenoxy)-3-cyano-N-(thiazol-2-yl)benzenesulfonamide] | 15
N#Cc1cc(S(=O)(=O)Nc2nccs2)ccc1Oc1ccc(Br)cc1-c1ccn[nH]1 [Example 461, 4-[4-bromo-2-(1H-pyrazol-5-yl)phenoxy]-3-cyano-N-1,3-thiazol-2-ylbenzenesulfonamide] | 20
Cn1nccc1-c1cc(Cl)ccc1Oc1ccc(S(=O)(=O)Nc2ncc(C(F)(F)F)cn2)cc1C#N [Example 462, 4-[4-chloro-2-(1-methyl-1H-pyrazol-5-yl)phenoxy]-3-cyano-N-[5-(trifluoromethyl)pyrimidin-2-yl]benzenesulfonamide] | 51000
Cn1nccc1-c1cc(Cl)ccc1Oc1ccc(S(=O)(=O)Nc2ncc(C#N)cn2)cc1C#N [Example 463, 4-[4-chloro-2-(1-methyl-1H-pyrazol-5-yl)phenoxy]-3-cyano-N-(5-cyanopyrimidin-2-yl)benzenesulfonamide] | 22000
Cn1nccc1-c1cc(Cl)ccc1Oc1ccc(S(=O)(=O)Nc2ncc(Cl)cn2)cc1C#N [Example 464, 4-[4-chloro-2-(1-methyl-1H-pyrazol-5-yl)phenoxy]-N-(5-chloropyrimidin-2-yl)-3-cyanobenzenesulfonamide] | 6000
Cn1nccc1-c1cc(Cl)ccc1Oc1ccc(S(=O)(=O)Nc2ncc(F)cn2)cc1C#N [Example 465, 4-[4-chloro-2-(1-methyl-1H-pyrazol-5-yl)phenoxy]-3-cyano-N-(5-fluoropyrimidin-2-yl)benzenesulfonamide] | 1000
Cn1nccc1-c1cc(Cl)ccc1Oc1ccc(S(=O)(=O)Nc2ccc(C#N)cn2)cc1C#N [Example 466, 4-[4-chloro-2-(1-methyl-1H-pyrazol-5-yl)phenoxy]-3-cyano-N-(5-cyanopyridin-2-yl)benzenesulfonamide] | 36000
Nc1[nH]ncc1-c1cc(Cl)ccc1Oc1cc(F)c(S(=O)(=O)Nc2ncc(Cl)s2)cc1F [Example 467, 4-[2-(5-amino-1H-pyrazol-4-yl)-4-chlorophenoxy]-N-(5-chloro-1,3-thiazol-2-yl)-2,5-difluorobenzenesulfonamide] | 9.6
Cn1nccc1-c1cc(C(F)(F)F)ccc1Oc1cc(F)c(S(=O)(=O)Nc2ncns2)cc1F [Example 468, 2,5-difluoro-4-[2-(1-methyl-1H-pyrazol-5-yl)-4-(trifluoromethyl)phenoxy]-N-1,2,4-thiadiazol-5-ylbenzenesulfonamide] | 29
N#Cc1cc(S(=O)(=O)Nc2nccs2)ccc1Oc1ccc(-n2cccn2)cc1 [Example 469, 3-cyano-4-[4-(1H-pyrazol-1-yl)phenoxy]-N-1,3-thiazol-2-ylbenzenesulfonamide] | 3300
Cc1cn(C)nc1-c1ccc(Oc2ccc(S(=O)(=O)Nc3nccs3)cc2C#N)cc1 [Example 470, 3-cyano-4-[4-(1,4-dimethyl-1H-pyrazol-3-yl)phenoxy]-N-1,3-thiazol-2-ylbenzenesulfonamide] | 3400
